According to patent publication US10766884B2 (Pfizer Inc., priority 2018, dated 2020):

Experiments:
CDK4/Cyclin D1 = CDK4/Cyclin D1 (Homo sapiens (Human), UniProt P11802); experiment: CDK4/Cyclin D1 mobility shift assay; type: biochemical; conditions: activated CDK4/Cyclin D1, 3.5 mM ATP, Morrison fit; read-out: CDK4D1 Ki
CDK4 = CDK4 (Homo sapiens (Human), UniProt P11802); experiment: Phospho-Serine 795 Rb ELISA assay in JEKO-1 cells; type: cell-based; conditions: overnight treatment, phospho-Rb S795, read-out: CDK4 pRB S795 ELISA JEKO-1 cells IC50
CDK6 = CDK6 (Homo sapiens (Human), UniProt Q00534); experiment: Phospho-Serine 795 Rb ELISA assay in MV4-11 cells; type: cell-based; conditions: overnight treatment, phospho-Rb S795, read-out: CDK6 pRB S795 ELISA MV4-11 cells IC50
CDK6/Cyclin D3 = CDK6/Cyclin D3 (Homo sapiens (Human), UniProt Q00534); experiment: CDK6/Cyclin D3 mobility shift assay; type: biochemical; conditions: activated CDK6/Cyclin D3, 3.5 mM ATP, Morrison fit; read-out: CDK6_D3 Ki
Sequence of CDK6/Cyclin D3 (Q00534 whole entry): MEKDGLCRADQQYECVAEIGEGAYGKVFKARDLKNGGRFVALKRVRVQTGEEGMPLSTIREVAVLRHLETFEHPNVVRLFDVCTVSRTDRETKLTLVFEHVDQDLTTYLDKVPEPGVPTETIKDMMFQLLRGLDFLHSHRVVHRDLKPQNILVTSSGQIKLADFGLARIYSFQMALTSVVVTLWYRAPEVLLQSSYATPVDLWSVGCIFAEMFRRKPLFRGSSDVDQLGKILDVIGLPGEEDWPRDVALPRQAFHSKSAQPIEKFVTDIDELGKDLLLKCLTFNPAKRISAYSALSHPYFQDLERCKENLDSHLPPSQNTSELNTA
Sequence of CDK6/Cyclin D3 (P30281 whole entry partner): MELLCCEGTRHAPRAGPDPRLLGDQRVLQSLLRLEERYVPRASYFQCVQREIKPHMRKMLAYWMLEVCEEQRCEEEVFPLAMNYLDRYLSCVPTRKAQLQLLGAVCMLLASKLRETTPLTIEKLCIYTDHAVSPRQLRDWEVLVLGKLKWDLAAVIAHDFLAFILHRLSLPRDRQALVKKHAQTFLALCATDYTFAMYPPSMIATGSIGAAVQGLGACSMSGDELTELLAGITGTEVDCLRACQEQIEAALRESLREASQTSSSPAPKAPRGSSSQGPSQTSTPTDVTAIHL

Sequence of CDK4 (P11802 2-303): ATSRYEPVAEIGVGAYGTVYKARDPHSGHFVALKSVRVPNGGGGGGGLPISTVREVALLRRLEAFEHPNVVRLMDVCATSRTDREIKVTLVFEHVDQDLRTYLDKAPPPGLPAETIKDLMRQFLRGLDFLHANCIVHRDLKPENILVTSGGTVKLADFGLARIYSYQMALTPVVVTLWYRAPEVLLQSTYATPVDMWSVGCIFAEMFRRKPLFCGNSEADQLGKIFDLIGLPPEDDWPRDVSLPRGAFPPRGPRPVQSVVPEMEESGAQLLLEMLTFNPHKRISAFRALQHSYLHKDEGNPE
Sequence of CDK4 (P24385 whole entry partner): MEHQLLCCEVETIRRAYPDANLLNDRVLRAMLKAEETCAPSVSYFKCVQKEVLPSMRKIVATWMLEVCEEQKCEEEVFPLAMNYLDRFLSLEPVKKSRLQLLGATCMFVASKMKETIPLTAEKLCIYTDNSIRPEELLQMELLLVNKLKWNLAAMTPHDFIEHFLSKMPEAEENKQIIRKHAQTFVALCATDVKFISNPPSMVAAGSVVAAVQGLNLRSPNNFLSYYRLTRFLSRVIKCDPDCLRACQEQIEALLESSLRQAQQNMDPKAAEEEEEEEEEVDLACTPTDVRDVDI
Sequence of CDK6 (Q00534 whole entry): as the sequence (Q00534 whole entry) above
Sequence of CDK6 (P30281 whole entry partner): as the sequence (P30281 whole entry partner) above
Sequence of CDK4/Cyclin D1 (P11802 whole entry): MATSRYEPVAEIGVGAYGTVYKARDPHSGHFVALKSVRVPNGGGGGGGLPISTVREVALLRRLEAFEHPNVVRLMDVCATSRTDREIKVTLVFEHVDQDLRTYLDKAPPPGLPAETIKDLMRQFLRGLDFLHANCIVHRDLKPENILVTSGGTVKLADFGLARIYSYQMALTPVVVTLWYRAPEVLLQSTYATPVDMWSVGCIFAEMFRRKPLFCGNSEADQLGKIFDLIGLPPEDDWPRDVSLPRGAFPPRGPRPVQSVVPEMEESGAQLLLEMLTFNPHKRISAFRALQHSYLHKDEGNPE
Sequence of CDK4/Cyclin D1 (P24385 whole entry partner): as the sequence (P24385 whole entry partner) above

Ki (CDK4/Cyclin D1) | IC50 (CDK4) | IC50 (CDK6) | Ki (CDK6/Cyclin D3) | Compound
0.9 nM | 205 nM | 230 nM | 18.6 nM | CC(C)n1c(CNC2COC2)nc2c(F)cc(-c3nc(N[C@@H]4CCN(S(C)(=O)=O)C[C@H]4O)ncc3Cl)cc21 [Example H09, (3R,4R)-4-({5-chloro-4-[4-fluoro-2-{[(oxetan-3-yl)amino]methyl}-1-(propan-2-yl)-1H-benzimidazol-6-yl]pyrimidin-2-yl}amino)-1-(methanesulfonyl)piperidin-3-ol]
0.5 nM | 14.9 nM | 51.1 nM | 16.4 nM | CC(C)NCc1nc2c(F)cc(-c3nc(N[C@@H]4CCN(S(C)(=O)=O)C[C@H]4O)ncc3Cl)cc2n1C(C)C [Example H10, (3R,4R)-4-({5-chloro-4-[4-fluoro-1-(propan-2-yl)-2-{[(propan-2-yl)amino]methyl}-1H-benzimidazol-6-yl]pyrimidin-2-yl}amino)-1-(methanesulfonyl)piperidin-3-ol]
0.7 nM | 43.4 nM | 295 nM | 22.1 nM | CC(C)n1c(CNC2CC2)nc2c(F)cc(-c3nc(N[C@@H]4CCOC[C@H]4O)ncc3Cl)cc21 [Example H11, 1,5-anhydro-3-[(5-chloro-4-{2-[(cyclopropylamino)methyl]-4-fluoro-1-(propan-2-yl)-1H-benzimidazol-6-yl}pyrimidin-2-yl)amino]-2,3-dideoxy-D-threo-pentitol]
